Assay results reported in patent US20240009170A1, “INHIBITION OF GLYCOGEN SYNTHASE KINASE-3 (GSK-3)” (Brown University, priority 2020, published 2024).

Experiments:
GSK-3 = conditions: cited from earlier work
[1] = tested on: HCT-116 colorectal cancer cells; assay: Co-culture of HCT-116 and TALL-104 cells with or without αPD-1 therapy; format: cell-based, Human; conditions: for TALL-104-mediated tumor cell killing: αPD-1 antibody added to co-culture, compared to TALL-104 cells alone
Protocol: (§1) Immune cell co-culture experiments. Co-culture experiments were conducted with GFP+ SW480 or HCT-116 colorectal cancer cells and either NK-92 natural killer cells or TALL-104 T cells in a 48-well plate, in the presence or absence of 9-ING-41. HCT-116 cells were labeled using CellTracker™ Green CMFDA (5-chloromethylfluorescein diacetate), immune cells (NK-92, TALL-104) were labeled using CellTracker™ Blue CMAC Dye (7-amino-4-chloromethylcoumarin), and ethidium homodimer-1 (EthD-1) was used as a marker of cell death (Invitrogen, Thermo Fisher Scientific, Waltham, MA, USA).
9-ING-41 increases tumor cell death in combination with αPD-1 therapy in a co-culture of HCT-116 colorectal cancer cells and immune cells. The inventors were interested in the applicability of GS3K-3 inhibitors such as 9-ING-41 in combination with immune checkpoint blockade. The inventors next performed co-cultures of immune cells (TALL-104, NK-92) and tumor cells (HCT-116) in the presence or absence of 9-ING-41, as well as either pembrolizumab® or nivolumab®, two humanized monoclonal antibodies against PD-1. The inventors evaluated HCT-116 cells in this co-culture model to determine if the 9-ING-41-mediated increase in immune cell-mediated SW480 cell killing could be reproduced in another colorectal cancer cell line.

[2] = tested on: HCT-116 colorectal cancer cells; assay: Co-culture of HCT-116 and NK-92 cells with or without αPD-1 therapy; format: cell-based, Human; conditions: not statistically significant
Protocol: as §1

| Compound | therapeutic index (GSK-3) | TALL-104-mediated tumor cell killing [1] | benefit in combination with NK-92 compared to NK-92 alone [2] | cell death, pembrolizumab+TALL-104 compared to nivolumab+TALL-104 [1] |
| --- | --- | --- | --- | --- |
| [Li] [Lithium] | narrow therapeutic index | – | – | – |
| nivolumab®: humanized monoclonal antibody against PD-1 | – | increased amount of TALL-104-mediated tumor cell killing | limited benefit | – |
| pembrolizumab®: humanized monoclonal antibody against PD-1 | – | increased amount of TALL-104-mediated tumor cell killing | limited benefit | slight increase in cell death |
